Where two headings read alike, the source gives them in different places.
Assays:
[1] = test system: human breast xenograft models harboring PIK3CA mutations; assay: tumor growth in human breast xenograft models harboring PIK3CA mutations; assay type: in vivo
[2] = test system: tumor cells bearing mutant PI3K; conditions: mutant PI3K over wild type (WT) PI3K cells; cited from earlier work
[3] = molecular target: Class I PI3K alpha isoform (Homo sapiens, UniProt P42336); conditions: PI3K alpha versus PI3K beta, delta and gamma isoforms; cited from earlier work
Class I PI3K alpha isoform, sequence (P42336 whole entry, canonical isoform): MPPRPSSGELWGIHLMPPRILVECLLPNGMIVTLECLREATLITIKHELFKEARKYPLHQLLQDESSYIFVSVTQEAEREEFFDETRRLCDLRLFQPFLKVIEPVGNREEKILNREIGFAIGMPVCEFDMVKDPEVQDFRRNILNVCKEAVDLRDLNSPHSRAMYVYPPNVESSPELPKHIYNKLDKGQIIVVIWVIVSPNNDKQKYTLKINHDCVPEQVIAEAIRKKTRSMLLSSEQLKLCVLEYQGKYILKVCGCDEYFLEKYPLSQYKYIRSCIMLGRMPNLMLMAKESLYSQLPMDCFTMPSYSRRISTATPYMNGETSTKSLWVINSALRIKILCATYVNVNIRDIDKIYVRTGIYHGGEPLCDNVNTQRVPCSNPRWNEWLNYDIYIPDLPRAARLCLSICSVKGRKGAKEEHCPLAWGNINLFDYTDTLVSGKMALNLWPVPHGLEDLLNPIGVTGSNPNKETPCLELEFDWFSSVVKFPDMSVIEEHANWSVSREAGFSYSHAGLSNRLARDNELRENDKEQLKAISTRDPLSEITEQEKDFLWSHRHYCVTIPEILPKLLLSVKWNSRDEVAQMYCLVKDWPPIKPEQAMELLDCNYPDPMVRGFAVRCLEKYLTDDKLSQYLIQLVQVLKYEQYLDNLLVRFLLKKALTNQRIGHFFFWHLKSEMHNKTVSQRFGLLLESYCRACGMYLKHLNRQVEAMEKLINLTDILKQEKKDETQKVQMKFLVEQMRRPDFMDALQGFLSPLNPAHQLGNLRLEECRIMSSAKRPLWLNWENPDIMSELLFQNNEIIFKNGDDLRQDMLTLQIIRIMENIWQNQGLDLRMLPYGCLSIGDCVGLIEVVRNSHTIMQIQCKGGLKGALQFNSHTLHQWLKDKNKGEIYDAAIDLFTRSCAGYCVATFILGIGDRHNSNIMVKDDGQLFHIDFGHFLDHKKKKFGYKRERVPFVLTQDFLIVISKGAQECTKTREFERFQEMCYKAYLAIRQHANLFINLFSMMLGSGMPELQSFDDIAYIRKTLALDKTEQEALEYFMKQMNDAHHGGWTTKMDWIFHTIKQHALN
Class I PI3K alpha isoform, sequence (P27986 whole entry partner, canonical isoform): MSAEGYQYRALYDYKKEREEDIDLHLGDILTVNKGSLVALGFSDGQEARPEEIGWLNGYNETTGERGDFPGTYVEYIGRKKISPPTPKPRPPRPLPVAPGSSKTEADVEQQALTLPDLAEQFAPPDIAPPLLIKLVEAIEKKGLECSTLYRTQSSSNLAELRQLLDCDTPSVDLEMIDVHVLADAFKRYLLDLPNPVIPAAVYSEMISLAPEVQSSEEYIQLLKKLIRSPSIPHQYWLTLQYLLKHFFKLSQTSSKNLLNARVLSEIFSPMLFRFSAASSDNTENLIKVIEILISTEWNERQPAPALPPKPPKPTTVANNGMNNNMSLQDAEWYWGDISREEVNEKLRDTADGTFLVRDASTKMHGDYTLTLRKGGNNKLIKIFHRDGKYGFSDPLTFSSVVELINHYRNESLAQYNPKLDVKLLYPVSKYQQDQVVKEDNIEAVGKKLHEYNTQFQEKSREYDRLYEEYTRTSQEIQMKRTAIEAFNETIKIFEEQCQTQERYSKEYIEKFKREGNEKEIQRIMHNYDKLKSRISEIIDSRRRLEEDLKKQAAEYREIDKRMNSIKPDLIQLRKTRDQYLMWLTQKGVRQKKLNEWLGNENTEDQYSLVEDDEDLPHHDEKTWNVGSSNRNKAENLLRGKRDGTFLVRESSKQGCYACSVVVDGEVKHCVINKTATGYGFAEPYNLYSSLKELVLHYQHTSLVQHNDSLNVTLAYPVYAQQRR

[4] = test system: PIK3CA-mutant breast cancer cell lines; assay: proliferation and apoptosis of PIK3CA-mutant breast cancer cell lines; assay type: cell-based; conditions: nonclinical studies
[5] = test system: PI3K-pathway markers pAKT, pPRAS40, pS6; assay: downstream PI3K-pathway markers (pAKT, pPRAS40, pS6)
[6] = test system: mutant p110 alpha; assay: degradation of mutant p110 alpha (nonclinical studies)
[7] = test system: patients with HR+/HER2- breast cancer; conditions: in combination with letrozole; cited from earlier work
[8] = test system: patients with HR+/HER2- breast cancer; conditions: in combination with fulvestrant; cited from earlier work

SMILES	tumor growth in xenograft models [1]	potency in mutant PI3K tumor cells over wild type PI3K cells [2]	fold less potent biochemical inhibition for other Class I PI3K isoforms [3] [fold]	apoptosis of PIK3CA-mutant breast cancer cell lines [4]	proliferation of PIK3CA-mutant breast cancer cell lines [4]	downstream PI3K-pathway markers [5]	degradation of mutant p110 alpha [6]	patients requiring 1 dose reduction of palbociclib [7] [%]	patients with cycle delays [7] [%]	patients with dose holds [7] [%]	patients requiring 1 dose reduction of palbociclib [8] [%]	patients with cycle delays [8] [%]	patients with dose holds [8] [%]
C[C@H](Nc1ccc2c(c1)OCCn1cc(N3C(=O)OC[C@H]3C(F)F)nc1-2)C(N)=O [GDC-0077, (S)-2-((2-((S)-4-(difluoromethyl)-2-oxooxazolidin-3-yl)-5,6-dihydrobenzo[f]imidazo[1,2-d][1,4]oxazepin-9-yl)amino)propanamide]	inhibits tumor growth	increased potency	> 300	induces apoptosis	inhibits proliferation	reduces downstream PI3K-pathway markers	specifically degrades mutant p110 alpha						
CC(=O)c1c(C)c2cnc(Nc3ccc(N4CCNCC4)cn3)nc2n(C2CCCC2)c1=O [palbociclib, 6-acetyl-8-cyclopentyl-5-methyl-2-(5-(piperazin-1-yl)pyridin-2-ylamino)pyrido[2,3-d]pyrimidin-7(8H)-one]								36	68	70	34	36	54
